Test results: US20250051391A1, “PEPTIDE INHIBITORS AND METHODS FOR INHIBITING PROTEIN AGGREGATION IN NEURONS AND NEURODEGENERATIVE DISEASES” (THE GOVERNING COUNCIL OF THE UNIVERSITY OF TORONTO, priority 2021, published 2025)
Ends that are not written are not given here.

Assays:
[1] = system: a-syn oligomers in HEK293 cells; assay: Oligomers screen (split YFP-a-syn protein fragment complementation, FACS); assay type: cell-based, human
Excerpt: To detect a-syn oligomers, a protein fragment complementation assay (PCA) of a-syn oligomerization in HEK293 cells (14) was used. In this assay, human A53T a-syn was fused to either the C- or N-terminal half of yellow fluorescent protein (YFP). No fluorescence is detectable while a-syn exists in monomers but, when a-syn oligomerizes, the two halves of YFP come in close enough proximity to form a functional, spontaneously fluorescent protein. […] By using fluorescence activated cell sorting (FACS), cells expressing Flag-tagged peptides that directly or indirectly interfered with a-syn oligomer formation were isolated and then the peptides were identified from genomic DNA (FIG. 1A). The screens yielded 10 hits (Table 1). The hit with the most reads (i.e., the most abundant) was the same peptide in all screens: IPIQLKA (SEQ ID NO: 1) (PDpep1) (Table 2). […] Lead peptide targets CHMP2B, a member of ESCRT-III
PCR primers that included the Illumina adaptor sequences were used to amplify peptide coding sequences recovered from selection and cell sorting. Results were demultiplexed, and peptide counts were tallied. After demultiplexing, only reads with an average quality Phred score of >30 were selected, and frequencies were calculated. Finally, the reads were then normalized to the total number of peptides read for that sample population, and a scalar factor was applied. In parallel, ˜25 individual colonies were Sanger sequenced to compare to the NGS data.
Lentiviruses were made in a 15 cm dish format by transfecting packaging cells (293T) with a three-plasmid system as previously described. Viral transduction of HEK293T cells, tet-off split luciferase a-syn cells, tet-off parent cells, and SH-SY5Y cells were performed with a multiplicity of infection of 0.3 (MOI=0.3). Infected cells were selected in puromycin-containing medium to eliminate uninfected cells and three aliquots of cells were collected for sampling of the initial (TO) cell population. Cells were treated with MG132 at concentrations of 0 μM, 10 μM, 25 μM or 50 μM. For the cell viability screen, surviving cells were collected and gDNA was extracted for identification of peptide inhibitors of cell toxicity. For the inhibition of a-syn aggregation screen, split YFP-a-syn constructs were transfected following stable expression of the peptides. Cells were sorted based on their GFP fluorescence intensities with a FACSVantage SE cell sorter (BD Bioscience).
Cells were harvested by trypsin treatment and centrifuged at 500×g for 5 minutes. The pellet was resuspended in ice-cold PBS and centrifuged again. The pellet was then resuspended at a concentration of 4×10^6 cells/ml in the sorting buffer, which is PBS containing 100 Kunitz Dnase l/ml, 10 μg/ml propidium iodide (Sigma) and 2% FBS. The sorting solution was also supplemented with either 10 μM forskolin, 100 μM 5,6-Dichlorobenzimidazole riboside (DRB, Sigma), 10 μM forskolin (Sigma) and 100 μM DRB or DMSO, as a control. The cells were then sent through a 40 μm filter to remove large clumps and loaded into either a FACScan Flow Cytometer (BD Bioscience) for cell analysis or a FACSVantage SE cell sorter (BD Bioscience) for cell sorting. The cells with positive propidium iodide staining (i.e., dead cells) were first eliminated from the analysis or sorting pool. For cell sorting, the desired population, either the most or least bright EGFP-positive cells, according to the purpose of the experiments (see Results), was sorted into either 15 ml conical tubes or 96-well plates, which both contained complete DMEM culture media.
Genomic DNA (gDNA) from peptide expressing cells at different time-points was extracted using QIAamp DNA Blood Mini Kit. PCR amplifications of peptides from gDNA in parallel with the lentiviral plasmid library (naïve library) were performed using indexed Illumina PCR primers to incorporate both the Illumina adapter sequences and indexing sequences. […]

CHMP2B-VPS4 interaction = target: T1, CHMP2B-VPS4 interaction (Homo sapiens, UniProt Q9UQN3); assay: Co-immunoprecipitation: disruption of VPS4B-CHMP2B interaction; assay type: cell-based; settings: Flag-VPS4B, HA-tagged CHMP proteins, GFP-tagged peptides
T1 construct: expressed in transfected cells; host or cells: HEK293T
T1 sequence (Q9UQN3 whole entry): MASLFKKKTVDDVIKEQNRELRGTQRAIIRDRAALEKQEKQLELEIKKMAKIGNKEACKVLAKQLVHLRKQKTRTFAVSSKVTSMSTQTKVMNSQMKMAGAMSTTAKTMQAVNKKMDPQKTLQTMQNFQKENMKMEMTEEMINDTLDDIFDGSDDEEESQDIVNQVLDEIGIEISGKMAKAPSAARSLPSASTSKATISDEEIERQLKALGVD
Experimental: HEK293T cells were co-transfected with Flag-tagged target protein, HA-tagged source protein, and GFP-tagged peptide or GFP. Cells were lysed 48 h after transfections with radioimmune precipitation assay buffer (50 mM Tris-HCl pH7.4, 1% Nonidet P-40, 150 mM NaCl, 1 mM EDTA, 10 mM Na3VO4, 10 mM sodium pyrophosphate, 25 mM NaF, 1× protease inhibitor mixture (Sigma)) for 30 min at 4° C. and coimmunoprecipitated with Flag beads (Clontech). The resulting immunocomplexes were analyzed by immunoblot using the appropriate antibodies. Protein samples were separated using 4-20% Mini-PROTEAN Tris-glycine gels (Bio-Rad) transferred to PVDF membranes and blocked in 5% milk containing PBS-Tween-20 (0.1%) for 1 h. PVDF membranes were then incubated with specified primary antibodies followed by incubation with horseradish peroxidase-conjugated secondary antibodies (Santa Cruz Biotechnology) and detected using enhanced chemiluminescence (GE Healthcare).

Row | Substance | Reads Ratio [1] | Reads GFP High ([1]; FACS fraction GFP High) | Reads GFP Inter ([1]; FACS fraction GFP Inter) | Reads GFP Neg ([1]; FACS fraction GFP Neg) | effect on CHMP2B-VPS4 interaction (co-immunoprecipitation) (CHMP2B-VPS4 interaction) | effect on CHMP2B-VPS4 interaction (co-immunoprecipitation) (CHMP2B-VPS4 interaction; listed as Pdpep1.3)
1 | IPIQLKA [PDpep1, top hit of all screens; maps to CHMP2B residues 203-209] | 1,218.98 | 12 | 2853 | 15556 | – | –
2 | DEEIERQLKALG [PDpep1.3] | – | – | – | – | disrupted the interaction between VPS4B and CHMP2B | inhibits the CHMP2B-VPS4 interaction
